Consider one substance from US20240299542A1, “NATURAL KILLER CELLS ENGINEERED TO REDUCE OR ELIMINATE CBL-B AND USES THEREOF” (City of Hope, priority 2021, published 2024).

Common to all, as to type: cell-based, human
In series [1] the test system is Molm-13, MV4-11 or EOL-1 leukemia cell lines. On the procedure:
FIGS. 3A-3E depict the results of a study showing that downregulation of Cbl-b enhances the cytotoxicity of primary human NK cells. (FIGS. 3A and 3B) Primary human NK cells transduced with Cbl-b siRNA or Scr siRNA for 24 h were stimulated without (FIG. 3A) or with (FIG. 3B) a low concentration of IL-15 (2 ng/ml) for 16 h, then co-cultured with ^51Cr labeled Molm-13, MV4-11 or EOL-1 leukemia cell lines for 4 h, followed by quantification of specific tumor cell lysis. Each experiment was repeated with 6 different normal donors. (FIG. 3C) qRT-PCR was performed to quantify the granzyme B (GZMB) mRNA levels (n=8 donors) in siRNA- and Scr siRNA-transduced primary human NK cells incubated without or with IL-15 (10 ng/ml) for 16 h. (FIG. 3D) The concentration of the granzyme B protein in the supernatants of Cbl-b siRNA- and Scr siRNA-transduced primary human NK cells incubated without (688.1 pg/ml vs 525.4 pg/ml; P=0.0232) or with IL-15 (10 ng/ml) for 24 h (8789 pg/ml vs 3397 pg/ml; P=0.0232) was measured by ELISA (n=8 donors). (FIG. 3E) The level of granzyme B protein in Cbl-b siRNA- and Scr siRNA-transduced primary human NK cells incubated without or with IL-15 (10 ng/ml) for 24 h was measured by immunoblot analysis. The data are representative of three experiments. Scr-scrambled; *P<0.05, **P<0.01, ***P<0.001, ****P<0.0001 by One-way or Two-way ANOVA; ns, not significant. […]

The next series concerns perform. Nature of the series: Perforin mRNA by qRT-PCR in siRNA-transduced NK cells. The note with it: without or with IL-15 (10 ng/ml) 16 h, vs Scr siRNA. On the procedure:
FIG. 8A Primary human NK cells were transduced with Cbl-b siRNA or a scrambled siRNA (Scr siRNA) for 48 h, directly followed by immunoblot analysis to determine the efficiency of siRNA (n=3 donors). […] FIG. 8B qRT-PCR was performed to quantify the level of perform mRNA (n=7 donors) in Cbl-b siRNA- and Scr siRNA-transduced primary human cells incubated without or with IL-15 (10 ng/ml) for 16 h. FIG. 8C The perform protein level in Cbl-b siRNA- and Scr siRNA-transduced primary human NK cells incubated 24 without or with IL-15 (10 ng/ml) for 24 h was measured by immunoblot analysis. The data are representative of four experiments and are summarized in the right panel. Scr, scrambled; *P<0.05, **P<0.01; ns, not significant. Data are presented as mean±SEM.
Reverse transcription-polymerase chain reaction. Total RNA was isolated from primary NK cells with the RNeasy Mini Kit (Qiagen). Complementary DNA (cDNA) was generated by Moloney murine leukemia virus (M-MLV) reverse transcriptase (Invitrogen) and amplified by qPCR with SYBR Green PCR Master Mix (Applied Biosystems) and gene-specific primers. Relative amplification values were normalized to the amplification of GAPDH or 18S rRNA.
Both groups were next incubated without or with IL-15 and co-cultured with ^51Cr labeled MV4-11, Molm-13, or EOL-1 leukemia cell lines, followed by assessment of specific lysis measured after 4 h of co-culture.
(In general: In qPCR the cycle at which signal appears reflects the starting amount.)

For another series, the system named is IFN-γ. Nature of the series: IFN-γ mRNA by qRT-PCR in IL-15-activated siRNA-transduced NK cells. The note with it: IL-15 (10 ng/ml) 6 h, vs Scr siRNA. On the procedure: FIGS. 4A-4D depict the results of a study showing that downregulation of Cbl-b increases IFN-γ secretion in IL-15-activated primary human NK cells. (FIG. 4A) RNAseq was conducted using primary human NK cells transduced with either Cbl-b siRNA or Scr siRNA without or with incubation in IL-15 (10 ng/ml) for 16 h (4 donors for each group). […] (FIG. 4B) qRT-PCR was performed to quantify the mRNA levels of IFN-γ (n=6 donors) after IL-15 (10 ng/ml) 6 h stimulation. (FIG. 4C) The percentage of intracellular IFN-γ+ cells in un-transduced NK cells or those transduced with Cbl-b siRNA or Scr siRNA, each activated with IL-15 (10 ng/ml) for 24 h (11.5% vs 4.338%; P=0.0008; n=5 donors). (FIG. 4D) Supernatants were collected after IL-15 (10 ng/ml) for 24 h and IFN-γ concentrations measured by ELISA (18115 pg/ml vs 882.5 pg/ml; P=0.0099; n=7 donors). Scr-scrambled; *P<0.05, **P<0.01, ***P<0.001 by Student's two-tailed paired t-test or One-way ANOVA; ns, not significant. Data presented as mean±SEM.
Reverse transcription-polymerase chain reaction. Total RNA was isolated from primary NK cells with the RNeasy Mini Kit (Qiagen). Complementary DNA (cDNA) was generated by Moloney murine leukemia virus (M-MLV) reverse transcriptase (Invitrogen) and amplified by qPCR with SYBR Green PCR Master Mix (Applied Biosystems) and gene-specific primers. […]

Consider “Cbl-b siRNA: Cbl-b-specific Accell siRNA (Dharmacon), SEQ ID NO:1, CCUUCAUGUUCAGAUGGUU (Accell modified siRNA, pattern not given here)”, for which the “cytotoxicity (specific lysis) without IL-15” value in series [1] is recorded as “significant increase in cytotoxicity against three of the four AML cell lines”. The “perform mRNA” value in the series on perform is “did not reach a statistical significance”. For the same substance, the “IFN-γ mRNA” value in the series with IFN-γ was “increased dramatically”.
